In paper PMC10244445, “Molecular basis for the recognition of 24-(S)-hydroxycholesterol by integrin αvβ3” (Scientific Reports, 2023):
Read-outs that look alike come from different tables or passages of the source.

Biological target: T1, integrin αvβ3 (Homo sapiens, UniProt P05106+P06756)
T1 construct: gene ITGAV; purified human αvβ3 Integrin; with integrin αv subunit (ITGAV, P06756)
Assay: SPR (Biacore S200, integrin immobilized on CM5 chip, steady-state model)
Assay type: binding

T1 sequence (P06756 31-889): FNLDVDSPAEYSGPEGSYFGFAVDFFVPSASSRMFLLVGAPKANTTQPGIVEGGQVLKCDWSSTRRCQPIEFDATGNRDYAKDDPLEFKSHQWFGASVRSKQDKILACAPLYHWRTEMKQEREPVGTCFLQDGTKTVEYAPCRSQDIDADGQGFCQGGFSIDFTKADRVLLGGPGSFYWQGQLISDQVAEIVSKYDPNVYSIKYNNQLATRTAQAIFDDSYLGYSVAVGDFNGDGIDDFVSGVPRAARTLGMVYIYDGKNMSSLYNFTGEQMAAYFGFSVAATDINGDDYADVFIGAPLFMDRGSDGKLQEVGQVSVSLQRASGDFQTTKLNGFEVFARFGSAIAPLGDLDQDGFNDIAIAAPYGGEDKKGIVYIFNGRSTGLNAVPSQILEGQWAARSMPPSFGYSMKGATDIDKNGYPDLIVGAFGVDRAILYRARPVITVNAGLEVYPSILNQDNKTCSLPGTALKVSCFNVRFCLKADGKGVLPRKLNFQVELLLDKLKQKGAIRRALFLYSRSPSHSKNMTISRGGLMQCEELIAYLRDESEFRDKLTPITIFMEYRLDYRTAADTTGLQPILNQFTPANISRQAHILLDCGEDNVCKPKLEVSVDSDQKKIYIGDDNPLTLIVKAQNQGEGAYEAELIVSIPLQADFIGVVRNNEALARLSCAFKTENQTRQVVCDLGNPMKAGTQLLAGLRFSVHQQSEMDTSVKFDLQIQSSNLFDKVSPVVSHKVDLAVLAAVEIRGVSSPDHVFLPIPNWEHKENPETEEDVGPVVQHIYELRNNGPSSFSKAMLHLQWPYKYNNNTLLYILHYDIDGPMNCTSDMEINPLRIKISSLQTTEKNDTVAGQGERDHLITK
T1 sequence (P06756 891-1048): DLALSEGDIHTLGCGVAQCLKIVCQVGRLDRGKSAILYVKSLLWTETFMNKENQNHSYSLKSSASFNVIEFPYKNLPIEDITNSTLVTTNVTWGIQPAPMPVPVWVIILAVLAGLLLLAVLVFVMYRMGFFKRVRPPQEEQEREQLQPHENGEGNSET
T1 sequence (P05106 27-788): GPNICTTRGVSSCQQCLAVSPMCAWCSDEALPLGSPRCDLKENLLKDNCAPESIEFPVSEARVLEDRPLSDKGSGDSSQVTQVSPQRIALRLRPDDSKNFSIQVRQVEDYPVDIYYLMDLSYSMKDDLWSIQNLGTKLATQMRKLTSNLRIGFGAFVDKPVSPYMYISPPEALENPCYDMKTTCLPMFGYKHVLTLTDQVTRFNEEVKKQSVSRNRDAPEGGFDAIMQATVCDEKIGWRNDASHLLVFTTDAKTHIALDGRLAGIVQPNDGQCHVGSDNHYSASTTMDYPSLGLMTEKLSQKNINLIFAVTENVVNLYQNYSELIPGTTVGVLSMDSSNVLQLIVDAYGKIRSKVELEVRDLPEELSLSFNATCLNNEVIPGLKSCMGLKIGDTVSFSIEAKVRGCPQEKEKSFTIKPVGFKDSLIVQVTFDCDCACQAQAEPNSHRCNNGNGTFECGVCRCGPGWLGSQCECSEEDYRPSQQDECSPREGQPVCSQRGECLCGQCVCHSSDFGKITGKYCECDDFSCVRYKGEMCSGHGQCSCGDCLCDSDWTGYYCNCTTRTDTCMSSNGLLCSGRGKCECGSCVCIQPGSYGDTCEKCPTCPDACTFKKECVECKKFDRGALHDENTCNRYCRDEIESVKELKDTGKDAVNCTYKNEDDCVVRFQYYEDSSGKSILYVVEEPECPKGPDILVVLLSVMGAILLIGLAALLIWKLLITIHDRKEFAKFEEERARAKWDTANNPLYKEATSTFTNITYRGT

SMILES	Kd	Kd (read-out: Kd)
CC(C)[C@@H](O)CC[C@@H](C)[C@H]1CC[C@H]2[C@@H]3CC=C4C[C@@H](O)CC[C@]4(C)[C@H]3CC[C@]12C [24HC, 24-(S)-hydroxycholesterol]	151 nM	
C[C@H](CCCC(C)(C)O)[C@H]1CC[C@H]2[C@@H]3CC=C4C[C@@H](O)CC[C@]4(C)[C@H]3CC[C@]12C [25HC, 25-hydroxycholesterol]		56.6 nM
